Test results reported in patent publication US20070117770A1, “Human ribosomal DNA (rDNA) and ribosomal RNA (rRNA) nucleic acids and uses thereof” (Cylene Pharmaceuticals, Inc., priority 2005, published 2007).

Tests used:
Yes(h) = Yes(h) (Homo sapiens, UniProt P07947); experiment: Protein kinase inhibition assay; assay type: biochemical; settings: read-out: percent residual activity of Yes(h)
Procedure: (§1) Certain compounds were tested for activity in protein kinase inhibition assays. All substrates were dissolved and diluted to working stocks in de-ionized water, apart from histone H1 (10× working stock in 20 mM MOPS pH 7.0), PDKtide (10× working stock in 50 mM Tris pH 7.0) ATF2 (which is typically stored at a 20× working stock in 50 mM Tris pH 7.5, 150 mM NaCl, 0.1 mM EGTA, 0.03% Brij-35, 50% glycerol, 1 mM benzamidine, 0.2 mM PMSF and 0.1% R-mercaptoethanol), KKLNRTLSFAEPG (SEQ ID NO:203) and RRRLSFAEPG (SEQ ID NO:204) (50 mM HEPES pH 7.4) and GGEEEEYFELVKKKK (SEQ ID NO:205) (20 mM MOPS pH 7.0). All kinases were pre-diluted to a 10× working concentration prior to addition into the assay. The composition of the dilution buffer for each kinase is detailed below.
(§2) In a final reaction volume of 25 μl, Yes (h) (5-10 mU) is incubated with 8 mM MOPS pH 7.0, 0.2 mM EDTA, 0.1 mg/ml poly(Glu, Tyr) 4:1, 10 mM MgAcetate and [gamma-33P-ATP] (specific activity approx. 500 cpm/pmol, concentration as required). The reaction is initiated by the addition of the MgATP mix. After incubation for 40 minutes at room temperature, the reaction is stopped by the addition of 5 μl of a 3% phosphoric acid solution. 10 μl of the reaction is then spotted onto a Filtermat A and washed three times for 5 minutes in 75 mM phosphoric acid and once in methanol prior to drying and scintillation counting.

Fes(h) = Fes(h) (Homo sapiens, UniProt P07332); experiment: Protein kinase inhibition assay; assay type: biochemical; settings: read-out: percent residual activity of Fes(h)
Procedure: as §1
as §2, with “Fes” for “Yes”, “[y-33P-ATP]” for “[gamma-33P-ATP]”

CDK5/p25(h) = CDK5/p25(h) (Homo sapiens, UniProt Q00535); experiment: Protein kinase inhibition assay; assay type: biochemical; settings: read-out: percent residual activity of CDK5/p25(h)
Procedure: as §1
as §2, with “CDK5/p25” for “Yes”, “histone H1,” for “poly(Glu, Tyr) 4:1,”, “[y-33P-ATP]” for “[gamma-33P-ATP]”, “P30 filtermat” for “Filtermat A”

cells = experiment: Apoptosis by Annexin V binding (FACS); assay type: cell-based
Procedure: Apoptosis was assessed by Annexin V binding in flow cytometry fluorescence activated cell sorting (FACS) assays. In such assays, cells were harvested and washed twice in PBS (4° C.) and resuspended at a concentration of 1×10^6 cells/ml in Binding Buffer (10× solution contains 0.1M HEPES/NaOH, pH7.4; […]; 25 mM CaCl2; PharMingen, 66121A). Cells were aliquotted (100 ul) into FACS tubes with Annexin V and/or viability dye. The tube contents were mixed gently and incubated for 15 minutes at room temperature in the dark. Binding Buffer (400 ul) was added to each tube and analyzed immediately by flow cytometry.
Annexin V is available in biotin, FITC (Annexin-V-FITC; PharMingen, 65874X) and PE (Annexin-PE; PharMingen, 65875X) formats. When using Annexin-V-FITC, Propidium Iodide (PI; Sigma, P 4170) was used as the viability marker (5 ul of a 50 ug/ml stock solution). When using Annexin-V-PE, 7-AminoActinomycin D (7-AAD; Sigma, A 9400) was the preferred viability marker (1 ug/ml final concentration) as there is less spectral overlap of PE and 7-AAD than PE and PI. While 7-AAD is not as bright as PI, FITC, PE and PI can be combined effectively. Tubes contained (i) cells alone, (ii) cells+Annexin, (iii) cells+PI (or 7-AAD) or (iv) cells+Annexin+PI (or 7-AAD) in some assays.

IKKβ(h) = IKKβ(h) (Homo sapiens, UniProt O14920); experiment: Protein kinase inhibition assay; assay type: biochemical; settings: read-out: percent residual activity of IKKβ(h)
Procedure: as §1
as §2, with “IKKβ” for “Yes”, “100 μM peptide,” for “0.1 mg/ml poly(Glu, Tyr) 4:1,”, “P30 filtermat” for “Filtermat A”

KDR(h) = KDR(h) (Homo sapiens, UniProt P35968); experiment: Protein kinase inhibition assay; assay type: biochemical; settings: read-out: percent residual activity of KDR(h)
Procedure: as §1
as §2, with “KDR” for “Yes”, “0.33” for “0.1”, “myelin basic protein,” for “poly(Glu, Tyr) 4:1,”, “[y-33P-ATP]” for “[gamma-33P-ATP]”, “P30 filtermat” for “Filtermat A”

Chain of Fes(h) (P07332 whole entry): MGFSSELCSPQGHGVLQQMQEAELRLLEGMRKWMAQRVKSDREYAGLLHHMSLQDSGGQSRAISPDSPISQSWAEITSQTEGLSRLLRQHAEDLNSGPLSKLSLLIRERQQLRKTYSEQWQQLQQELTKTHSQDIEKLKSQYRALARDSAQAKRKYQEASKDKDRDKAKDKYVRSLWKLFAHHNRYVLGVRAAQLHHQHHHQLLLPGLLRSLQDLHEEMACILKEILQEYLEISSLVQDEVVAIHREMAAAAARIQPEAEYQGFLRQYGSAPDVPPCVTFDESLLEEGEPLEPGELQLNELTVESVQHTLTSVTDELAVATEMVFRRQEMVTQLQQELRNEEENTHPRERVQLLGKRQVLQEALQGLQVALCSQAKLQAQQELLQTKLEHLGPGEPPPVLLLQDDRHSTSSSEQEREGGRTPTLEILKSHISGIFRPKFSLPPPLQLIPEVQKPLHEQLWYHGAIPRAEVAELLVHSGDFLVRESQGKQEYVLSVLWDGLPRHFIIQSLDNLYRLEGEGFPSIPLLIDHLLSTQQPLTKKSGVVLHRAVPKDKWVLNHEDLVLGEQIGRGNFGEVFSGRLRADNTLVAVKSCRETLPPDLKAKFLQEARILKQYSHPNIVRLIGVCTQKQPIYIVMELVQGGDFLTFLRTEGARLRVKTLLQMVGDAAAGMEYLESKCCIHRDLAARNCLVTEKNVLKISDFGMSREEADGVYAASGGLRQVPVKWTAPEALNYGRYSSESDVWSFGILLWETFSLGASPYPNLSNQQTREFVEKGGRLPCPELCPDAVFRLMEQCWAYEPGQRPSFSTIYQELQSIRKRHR
Chain of CDK5/p25(h) (Q00535 whole entry): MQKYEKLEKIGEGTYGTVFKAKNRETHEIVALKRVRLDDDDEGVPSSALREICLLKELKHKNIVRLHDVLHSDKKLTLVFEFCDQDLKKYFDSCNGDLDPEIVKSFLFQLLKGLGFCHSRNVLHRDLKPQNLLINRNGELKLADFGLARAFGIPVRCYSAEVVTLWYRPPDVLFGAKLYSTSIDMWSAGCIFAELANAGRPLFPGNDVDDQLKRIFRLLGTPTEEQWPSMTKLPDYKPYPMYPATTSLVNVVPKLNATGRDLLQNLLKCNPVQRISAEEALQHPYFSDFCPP
Chain of CDK5/p25(h) (Q15078 99-307 partner limits assumed): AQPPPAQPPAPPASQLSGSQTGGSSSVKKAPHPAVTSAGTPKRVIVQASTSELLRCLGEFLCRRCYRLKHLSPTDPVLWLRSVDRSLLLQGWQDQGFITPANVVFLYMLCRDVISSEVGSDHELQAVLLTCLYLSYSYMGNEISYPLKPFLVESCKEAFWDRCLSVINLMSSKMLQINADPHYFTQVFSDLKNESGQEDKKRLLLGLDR
Chain of KDR(h) (P35968 20-1356): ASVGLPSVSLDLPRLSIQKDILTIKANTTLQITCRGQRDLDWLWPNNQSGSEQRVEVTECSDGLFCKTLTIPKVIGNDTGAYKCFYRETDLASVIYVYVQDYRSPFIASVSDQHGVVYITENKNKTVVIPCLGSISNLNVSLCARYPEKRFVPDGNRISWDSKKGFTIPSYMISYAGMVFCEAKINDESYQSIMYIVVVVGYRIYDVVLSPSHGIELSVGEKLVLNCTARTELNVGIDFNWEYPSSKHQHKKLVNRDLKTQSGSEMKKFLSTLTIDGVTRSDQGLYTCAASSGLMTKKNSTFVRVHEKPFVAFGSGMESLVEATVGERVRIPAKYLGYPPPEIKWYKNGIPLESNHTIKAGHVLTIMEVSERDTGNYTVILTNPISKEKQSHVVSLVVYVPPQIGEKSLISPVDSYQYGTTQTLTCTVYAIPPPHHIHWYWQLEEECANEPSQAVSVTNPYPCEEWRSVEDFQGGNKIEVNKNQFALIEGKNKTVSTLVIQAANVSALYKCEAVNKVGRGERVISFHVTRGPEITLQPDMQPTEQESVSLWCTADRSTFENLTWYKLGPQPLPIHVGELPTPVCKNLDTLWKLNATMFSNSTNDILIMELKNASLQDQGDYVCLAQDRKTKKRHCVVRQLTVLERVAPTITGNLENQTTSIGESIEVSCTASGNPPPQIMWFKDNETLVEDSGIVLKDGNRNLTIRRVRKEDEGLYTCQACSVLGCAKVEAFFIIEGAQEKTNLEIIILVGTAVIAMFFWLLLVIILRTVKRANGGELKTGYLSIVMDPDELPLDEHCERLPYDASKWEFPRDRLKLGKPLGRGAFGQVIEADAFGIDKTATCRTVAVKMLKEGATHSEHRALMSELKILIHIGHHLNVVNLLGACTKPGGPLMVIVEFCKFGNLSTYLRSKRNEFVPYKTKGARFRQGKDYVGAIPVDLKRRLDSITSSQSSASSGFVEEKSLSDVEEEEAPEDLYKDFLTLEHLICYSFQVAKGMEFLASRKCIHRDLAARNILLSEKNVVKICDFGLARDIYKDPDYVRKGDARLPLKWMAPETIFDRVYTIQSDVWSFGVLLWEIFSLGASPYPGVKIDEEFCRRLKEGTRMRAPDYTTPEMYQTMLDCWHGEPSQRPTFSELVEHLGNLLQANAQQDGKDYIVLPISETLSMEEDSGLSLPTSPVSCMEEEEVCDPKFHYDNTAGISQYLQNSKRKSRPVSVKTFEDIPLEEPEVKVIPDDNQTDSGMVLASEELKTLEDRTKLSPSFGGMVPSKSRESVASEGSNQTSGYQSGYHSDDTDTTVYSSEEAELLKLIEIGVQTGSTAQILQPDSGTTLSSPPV
Chain of IKKβ(h) (O14920 whole entry): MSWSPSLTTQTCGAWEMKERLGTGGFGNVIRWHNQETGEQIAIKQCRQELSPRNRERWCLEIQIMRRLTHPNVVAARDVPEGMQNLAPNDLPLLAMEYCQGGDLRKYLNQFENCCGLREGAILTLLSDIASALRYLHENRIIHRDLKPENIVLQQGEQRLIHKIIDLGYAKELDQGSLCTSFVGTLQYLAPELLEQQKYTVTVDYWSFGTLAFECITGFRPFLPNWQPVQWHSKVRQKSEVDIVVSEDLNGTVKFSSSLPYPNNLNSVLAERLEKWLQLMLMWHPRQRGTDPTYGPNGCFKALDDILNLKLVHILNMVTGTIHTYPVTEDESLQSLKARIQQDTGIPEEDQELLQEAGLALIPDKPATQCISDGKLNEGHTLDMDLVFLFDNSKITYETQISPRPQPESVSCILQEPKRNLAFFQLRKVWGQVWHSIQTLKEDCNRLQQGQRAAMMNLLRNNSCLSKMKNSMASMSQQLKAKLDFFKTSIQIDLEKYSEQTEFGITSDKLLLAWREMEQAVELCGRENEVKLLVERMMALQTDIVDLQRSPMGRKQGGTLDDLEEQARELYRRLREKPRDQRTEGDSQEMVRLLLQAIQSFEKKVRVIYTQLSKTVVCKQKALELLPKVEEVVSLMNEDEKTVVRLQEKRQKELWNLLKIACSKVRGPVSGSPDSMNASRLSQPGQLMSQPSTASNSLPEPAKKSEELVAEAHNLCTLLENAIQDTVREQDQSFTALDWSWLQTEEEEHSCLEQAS
Chain of Yes(h) (P07947 whole entry): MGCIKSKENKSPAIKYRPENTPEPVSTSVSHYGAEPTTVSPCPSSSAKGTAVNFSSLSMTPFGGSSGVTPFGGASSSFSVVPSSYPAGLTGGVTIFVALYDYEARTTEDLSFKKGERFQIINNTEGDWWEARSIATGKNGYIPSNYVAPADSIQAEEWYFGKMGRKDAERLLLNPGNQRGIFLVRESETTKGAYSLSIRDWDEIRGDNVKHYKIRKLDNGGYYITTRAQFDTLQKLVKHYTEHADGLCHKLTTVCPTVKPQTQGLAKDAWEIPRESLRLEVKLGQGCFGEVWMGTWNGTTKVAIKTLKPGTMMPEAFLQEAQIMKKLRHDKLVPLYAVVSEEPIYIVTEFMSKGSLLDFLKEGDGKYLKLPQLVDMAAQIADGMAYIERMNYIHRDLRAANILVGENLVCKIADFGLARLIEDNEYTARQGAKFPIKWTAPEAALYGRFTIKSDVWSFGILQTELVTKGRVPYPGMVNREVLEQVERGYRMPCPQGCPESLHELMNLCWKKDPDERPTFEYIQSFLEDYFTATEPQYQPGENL

| remaining activity at 2.5 µM (Yes(h)) | remaining activity at 2.5 µM (Fes(h)) | remaining activity at 2.5 µM (CDK5/p25(h)) | remaining activity at 2.5 µM (IKKβ(h)) | remaining activity at 2.5 µM (KDR(h)) | SMILES | induction of apoptosis (cells) |
| --- | --- | --- | --- | --- | --- | --- |
| 81% | 82% | 77% | 56% | 90% | CN1CCCC1CCNC(=O)c1cn2c3c(c(N4CCC(c5cnccn5)C4)c(F)cc3c1=O)Oc1cc3ccccc3cc1-2 (stereo not drawn) [Compound A-1] | induced apoptosis |
| 96% | 101% | 99% | 105% | 95% | CC(=O)N1CCN(c2ccc3c(=O)c(C(=O)NCCN4CCCC4)c4n(C)c5ccccc5n4c3n2)CC1 [Compound B-1] | induced apoptosis following an efficient arrest of cell cycle progression |
